The IC50 is the point on the concentration scale where inhibition reaches its midpoint.

human GSK3β, sequence (P49841 whole entry): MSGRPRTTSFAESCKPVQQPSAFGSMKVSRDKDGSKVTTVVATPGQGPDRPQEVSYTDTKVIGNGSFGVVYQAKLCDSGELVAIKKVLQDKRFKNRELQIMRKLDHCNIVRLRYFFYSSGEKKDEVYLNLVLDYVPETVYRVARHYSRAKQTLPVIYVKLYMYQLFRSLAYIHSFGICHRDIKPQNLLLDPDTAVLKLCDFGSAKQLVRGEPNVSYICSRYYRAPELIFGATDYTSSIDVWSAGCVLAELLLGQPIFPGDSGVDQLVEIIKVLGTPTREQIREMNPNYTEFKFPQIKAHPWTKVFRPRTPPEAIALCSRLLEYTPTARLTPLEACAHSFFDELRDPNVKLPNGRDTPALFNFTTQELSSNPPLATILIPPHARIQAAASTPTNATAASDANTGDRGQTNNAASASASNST

The test deals with human GSK3β (Homo sapiens, UniProt P49841). Put plainly: Screening for GSK3 inhibitory activity using a cell-free assay. Format: biochemical. Particulars: read-out: IC50 with respect to GSK3. As to the method:
This amount represents the amount of radiolabeled phosphate incorporated into the peptide substrate.
The captured radiolabeled peptide substrate can be quantitated in a scintillation counter using known methods. […] If an inhibitor is present during the reaction, GSK3 activity will be reduced, and a smaller quantity of radiolabeled phosphate will thus be incorporated into the peptide substrate.
Pyrimidine and pyridine compounds of the present invention were dissolved in DMSO, then tested for inhibition of human GSK3β (the nucleotide sequence for human GSK3β appears in GenBank under Accession No. L33801).
While the reaction was proceeding, streptavidin-coated Labsystems “Combiplate 8” capture plates (Labsystems, Helsinki, Finland) were blocked by incubating them with 300 μl/well of PBS containing 1% bovine serum albumin for at least one hour at room temperature. The blocking solution was then removed by aspiration, and the capture plates were filled with 100 ul/well of stopping reagent (50 μM ATP/20 mM EDTA).
When the three hour enzyme reaction was finished, triplicate 100 μl aliquots of each reaction mix were transferred to three wells containing stopping solution, one well on each of the three capture plates, and the well contents were mixed well. […] Finally, 200 μl of Microscint-20 scintillation fluid was added to each well of the plate. The plates were coated with plate sealers, then left on a shaker for 30 minutes. Each capture plate was counted in a Packard TopCount scintillation counter (Meridian, Conn.) and the results were plotted as a function of compound concentration.
For the molecule `Cc1cnc(CNc2nccc(-c3ccc(C(N)=O)cc3)n2)cn1` [4-(2-{[(5-methylpyrazin-2-yl)methyl]amino}pyrimidin-4-yl)benzamide], the IC50 was not above 10000 nM.
`N#Cc1cnc(NCCNc2ccc([N+](=O)[O-])cn2)nc1-c1ccc(Cl)c(Cl)c1` [4-(3,4-dichlorophenyl)-2-({2-[(5-nitro(2-pyridyl))amino]ethyl}amino)pyrimidine-5-carbonitrile]: the IC50 is not above 10000 nM.
On to `N#Cc1cccc(-c2nc(NCCNc3ccc([N+](=O)[O-])cn3)nc(-c3ccc([N+](=O)[O-])cc3)c2C(=O)O)c1` [4-(3-cyanophenyl)-2-({2-[(5-nitro(2-pyridyl))amino]ethyl}amino)-6-(4-nitrophenyl)pyrimidine-5-carboxylic acid], for which the IC50 is not above 10000 nM.
For the molecule `O=C(O)c1c(-c2ccc([N+](=O)[O-])cc2)nc(NCCNc2ccc([N+](=O)[O-])cn2)nc1-c1cccc(O)c1` [4-(3-hydroxyphenyl)-2-({2-[(5-nitro(2-pyridyl))amino]ethyl}amino)-6-(4-nitrophenyl)pyrimidine-5-carboxylic acid], the IC50 was not above 1000 nM.
As for `O=C(O)c1ccc(-c2nc(NCCNc3ccc([N+](=O)[O-])cn3)nc(-c3ccc([N+](=O)[O-])cc3)c2C(=O)O)cc1` [4-(4-carboxyphenyl)-2-({2-[(5-nitro(2-pyridyl))amino]-ethyl}amino)-6-(4-nitrophenyl)pyrimidine-5-carboxylic acid], the IC50 is not above 1000 nM.
On to `N#Cc1ccc(-c2nc(NCCNc3ccc([N+](=O)[O-])cn3)nc(-c3ccc([N+](=O)[O-])cc3)c2C(=O)O)cc1` [4-(4-cyanophenyl)-2-({2-[(5-nitro(2-pyridyl))-amino]ethyl}amino)-6-(4-nitrophenyl)pyrimidine-5-carboxylic acid], for which the IC50 is not above 1000 nM.
Next, `N#Cc1ccc(-c2nc(NCCNc3ccc([N+](=O)[O-])cn3)ncc2C(N)=O)cc1` [4-(4-cyanophenyl)-2-({2-[(5-nitro(2-pyridyl))-amino]ethyl}amino)pyrimidine-5-carboxamide]: not above 1000 nM.
With `N#Cc1ccc(-c2nc(NCCNc3ccc([N+](=O)[O-])cn3)nc(-c3cccc([N+](=O)[O-])c3)c2C(=O)O)cc1` [4-(4-cyanophenyl)-2-({2-[(5-nitro(2-pyridyl))amino]ethyl}amino)-6-(3-nitrophenyl)pyrimidine-5-carboxylic acid], the IC50 is not above 1000 nM.
Turning to `N#Cc1ccc(-c2nc(NCCNc3ccc([N+](=O)[O-])cn3)nc(-c3ccccc3)c2C(=O)O)cc1` [4-(4-cyanophenyl)-2-({2-[(5-nitro(2-pyridyl))amino]ethyl}amino)-6-phenylpyrimidine-5-carboxylic acid], the IC50 is not above 1000 nM.
Consider `N#Cc1ccc(-c2nc(NCCNc3ccc([N+](=O)[O-])cn3)ncc2C#N)cc1` [4-(4-cyanophenyl)-2-({2-[(5-nitro(2-pyridyl))amino]ethyl}amino)pyrimidine-5-carbonitrile], for which the IC50 is not above 1000 nM.
Turning to `N#Cc1ccc(-c2nc(NCCNc3ccc([N+](=O)[O-])cn3)ncc2C(=O)O)cc1` [4-(4-cyanophenyl)-2-({2-[(5-nitro(2-pyridyl))amino]ethyl}amino)pyrimidine-5-carboxylic acid], the IC50 was not above 1000 nM.
Turning to `N#Cc1ccc(-c2nc(NCCNc3ccc([N+](=O)[O-])cn3)nc(-c3ccoc3)c2C(=O)O)cc1` [4-(4-cyanophenyl)-6-(3-furyl)-2-({2-[(5-nitro(2-pyridyl))-amino]ethyl}amino)pyrimidine-5-carboxylic acid], the IC50 was not above 1000 nM.
Next, `N#Cc1ccc(-c2nc(NCCNc3ccc([N+](=O)[O-])cn3)nc(-c3ccc(F)cc3)c2C(=O)O)cc1` [4-(4-cyanophenyl)-6-(4-fluorophenyl)-2-({2-[(5-nitro(2-pyridyl))amino]ethyl}-amino)pyrimidine-5-carboxylic acid]: not above 1000 nM.
Turning to `COc1ccc(-c2nc(NCCNc3ccc([N+](=O)[O-])cn3)nc(-c3ccc([N+](=O)[O-])cc3)c2C(=O)O)cc1` [4-(4-methoxyphenyl)-2-({2-[(5-nitro(2-pyridyl))amino]ethyl}-amino)-6-(4-nitrophenyl)pyrimidine-5-carboxylic acid], the IC50 was not above 10000 nM.
Turning to `N#Cc1cnc(NCCNc2nccc(-c3ccc(C(N)=O)cc3)n2)nc1N` [4-[2-({2-[(4-amino-5-cyano-pyrimidin-2-yl)amino]ethyl}amino)pyrimidin-4-yl]benzamide], the IC50 was not above 1000 nM.
Regarding `N#Cc1ccc(NCCNc2nccc(-c3ccc(C(N)=O)cc3)n2)nc1` [4-[2-({2-[(5-cyano-2-pyridyl)amino]-ethyl}amino)pyrimidin-4-yl]benzamide], the IC50 is not above 1000 nM.
As to `N#Cc1ccc(-c2nc(NCCNc3ccc([N+](=O)[O-])cn3)ncc2NCc2ccccc2)cc1` [4-[2-({2-[(5-nitro(2-pyridyl))amino]ethyl}amino)-5-[benzylamino]pyrimidin-4-yl]benzenecarbonitrile], the IC50 is not above 1000 nM.
The result for `O=[N+]([O-])c1ccc(NCCNc2ncc(-c3ccccc3)c(-c3ccc(O)cc3)n2)nc1` [4-[2-({2-[(5-nitro(2-pyridyl))amino]ethyl}amino)-5-phenylpyrimidin-4-yl]phenol] reads not above 10000 nM; that for `O=[N+]([O-])c1ccc(NCCNc2nccc(-c3ccc(O)cc3)n2)nc1` [4-[2-({2-[(5-nitro-2-pyridyl)-amino]ethyl}amino)pyrimidin-4-yl]phenol], not above 10000 nM; that for `NC(=O)c1ccc(-c2ccnc(NCCNc3ccc([N+](=O)[O-])cn3)n2)cc1` [4-[2-({2-[(5-nitro-2-pyridyl)amino]ethyl}amino)-pyrimidin-4-yl]benzamide], not above 1000 nM.
For the molecule `NS(=O)(=O)c1ccc(-c2ccnc(NCCNc3ccc([N+](=O)[O-])cn3)n2)cc1` [4-[2-({2-[(5-nitro-2-pyridyl)amino]ethyl}amino)pyrimidin-4-yl]benzenesulfonamide], the half-maximal inhibitory concentration (IC50) was not above 10000 nM.
As to `N#Cc1ccc(-c2nc(NCCNc3ccc([N+](=O)[O-])c(N)n3)ncc2-c2ncc[nH]2)cc1` [4-[2-({2-[(6-amino-5-nitro(2-pyridyl))amino]-ethyl}amino)-5-imidazol-2-ylpyrimidin-4-yl]benzenecarbonitrile], the IC50 was not above 1000 nM.
Regarding `COc1cccc(NCCNc2nccc(-c3ccc(C(N)=O)cc3)n2)n1` [4-[2-({2-[(6-methoxy-2-pyridyl)amino]ethyl}amino)pyrimidin-4-yl]benzamide], the IC50 was not above 1000 nM.
Regarding `NC(=O)c1ccc(-c2ccnc(NCCCOc3cccc(C(F)(F)F)c3)n2)cc1` [4-[2-({3-[3-(trifluoromethyl)phenoxy]propyl}amino)pyrimidin-4-yl]benzamide], the IC50 was not above 1000 nM.
The result for `NC(=O)c1ccc(-c2ccnc(NCCCNc3ccc([N+](=O)[O-])cn3)n2)cc1` [4-[2-({3-[(5-nitro-2-pyridyl)amino]propyl}amino)pyrimidin-4-yl]benzamide] reads not above 1000 nM; that for `NC(=O)c1ccc(-c2ccnc(NCc3cc(C(F)(F)F)cc(C(F)(F)F)c3)n2)cc1` [4-[2-({[3,5-bis(trifluoromethyl)phenyl]methyl}amino)pyrimidin-4-yl]benzamide], not above 10000 nM; that for `NC(=O)c1ccc(-c2ccnc(NCc3cccc(-c4cccc(N)c4)c3)n2)cc1` [4-[2-({[3-(3-aminophenyl)phenyl]methyl}amino)pyrimidin-4-yl]benzamide], not above 10000 nM.
The result for `COc1cccc(-c2cccc(CNc3nccc(-c4ccc(C(N)=O)cc4)n3)c2)c1` [4-[2-({[3-(3-methoxyphenyl)phenyl]methyl}amino)pyrimidin-4-yl]benzamide] reads not above 10000 nM.
With `NC(=O)c1ccc(-c2ccnc(NCc3cccc(C(F)(F)F)c3)n2)cc1` [4-[2-({[3-(trifluoromethyl)phenyl]methyl}amino)pyrimidin-4-yl]-benzamide], the concentration for half-maximal inhibition (IC50) was not above 10000 nM.
Turning to `NC(=O)c1ccc(-c2ccnc(NCc3ccc(-c4cccc(N)c4)cc3)n2)cc1` [4-[2-({[4-(3-aminophenyl)phenyl]methyl}amino)pyrimidin-4-yl]benzamide], the half-maximal inhibitory concentration (IC50) is not above 10000 nM.
As to `NC(=O)c1ccc(-c2ccnc(NCc3ccc(-c4ccc(F)cc4)cc3)n2)cc1` [4-[2-({[4-(4-fluorophenyl)phenyl]methyl}amino)pyrimidin-4-yl]benzamide], the IC50 was not above 10000 nM.
For the molecule `NC(=O)c1ccc(-c2ccnc(NCc3ccc(C(F)(F)F)cc3)n2)cc1` [4-[2-({[4-(trifluoromethyl)phenyl]methyl}amino)pyrimidin-4-yl]benzamide], the IC50 was not above 10000 nM.
Regarding `Cc1noc(-c2cnc(NCCNc3ccc([N+](=O)[O-])cn3)nc2-c2ccc(C#N)cc2)n1` [4-[5-(3-methyl(1,2,4-oxadiazol-5-yl))-2-({2-[(5-nitro(2-pyridyl))amino]-ethyl}amino)pyrimidin-4-yl]benzenecarbonitrile], the IC50 is not above 1000 nM.
Regarding `CS(=O)(=O)c1cnc(NCCNc2ccc([N+](=O)[O-])cn2)nc1-c1ccc(C#N)cc1` [4-[5-(methylsulfonyl)-2-({2-[(5-nitro(2-pyridyl))amino]ethyl}amino)pyrimidin-4-yl]benzenecarbonitrile], the IC50 is not above 1000 nM.
As for `N#Cc1ccc(-c2nc(NCCNc3ccc([N+](=O)[O-])cn3)ncc2C(=O)N2CCOCC2)cc1` [4-[5-(morpholin-4-ylcarbonyl)-2-({2-[(5-nitro(2-pyridyl))amino]ethyl}-amino)pyrimidin-4-yl]benzenecarbonitrile], the concentration for half-maximal inhibition (IC50) was not above 1000 nM.

(Values after patent publication US7425557B2, “Inhibitors of glycogen synthase kinase 3” (Novartis Vaccines and Diagnostics, Inc., priority 1998, dated 2008).)
